Results as given in US20110269790A1, “NOVEL THIENOPYRIDINES AS PHARMACOLOGICALLY ACTIVE AGENTS” (priority 2009, published 2011).
In brackets after ≈: the same amount, converted by molar mass. Several values for one entry are separate records, joined by “and”; a condition that tells them apart may be missing. Equal entries are not always repeated. Entries after “also recorded” stand apart in the source; their conditions may differ. Where two headings read alike, the source gives them in different places.

What was measured:
Wistar rats = test: Carrageenan induced paw edema model; type: in vivo, rat; conditions: for change in vivo at 100 mg/kg / inhibition in vivo at 100 mg/kg: Rattus norvegicus; for change in vivo at 100 mg/kg: read-out: % Increase in Paw Volume; for inhibition in vivo at 100 mg/kg: read-out: % Inhibition (paw volume)
Experimental: Male Albino Wistar rats of 150-180 grams were used for the experiments.
Anti-inflammatory activity of test compounds was evaluated in Wistar rats employing the method of Winter et al (1963) and Diwan et al (1989). Male Wistar rats were used for the study. […] The different test compounds were administered to the animals in the test group at the dose of 100 mg/kg, by oral route. Animals in the standard group received Indomethacin at the dose of 10 mg/kg, by oral route. All test and standard compounds were administered as 1% gum acacia suspension. Rats in the control group received the vehicle solution without drugs. One hour after test drugs administration, rats in all the groups were challenged with 0.1 ml of 1% Carrageenan in the sub plantar region of right hind paw. A zero hour paw volume was measured for all the rats using digital plethysmometer (Ugo Basile, Italy) before the administration of carrageenan for all groups. Paw volumes were again measured 3 hrs after the challenge of Carrageenan. The percent inhibition of paw volume for each rat in treated groups was calculated by comparing with mean paw volume of control group and expressed as mean (±SE) percent inhibition of paw volume for each test. In a preliminary study the compounds that have shown good activity were evaluated for dose response study by using above procedure.

A549 (Lung cancer) = test: MTT assay, A549; type: cell-based; conditions: Homo sapiens, read-out: A549 IC50
Experimental: (§1) A431 (Skin cancer), Colo-205 (Colon cancer), A549 (Lung cancer) cell lines were obtained from National Center for Cell science (NCCS), Pune, India. DMEM (Dulbeccos Modified Eagles Medium), MTT [3-(4,5-dimethylthiazol-2-yl)-2,5-diphenyl tetrazolium bromide], Trypsin, EDTA were purchased from Sigma Chemicals Co (St. Louis, Mo.), Fetal bovine serum were purchased from Arrow labs, 96 well flat bottom tissue culture plates were purchased from Tarson.
(§2) A431, Colo-205, A549 cell lines were grown as adherent cells in DMEM media supplemented with 10% fetal bovine serum, 100 μg/ml penicillin, 200 μg/ml streptomycin, 2 mM L-glutamine, and culture was maintained in a humidified atmosphere with 5% CO2. Stock solution of 10 mg/ml was prepared for test molecules in DMSO. From the stock, various dilutions were made with sterile water to get required concentration. A431, Colo-205, A549 cell lines were seeded at a density of 1×10^4 cells (cell number was determined by Trypan blue exclusion dye method) per each well in 100 μl of DMEM supplemented with 10% FBS. 12 hrs after seeding, above media was replaced with fresh DMEM supplemented with 10% FBS. Then, 10 μl sample from above stock solutions were added to each well in triplicates which gives final concentration of 100, 50, 25, 10 μg/well. The above cells were incubated for 48 hrs at 37° C. with 5% CO2. After 48 hrs incubation the above media was replaced with 100 μl of fresh DMEM with out FBS and to this 10 μl of MTT (5 mg dissolved in 1 ml of PBS) was added and incubated for 3 hrs at 37° C. with 5% CO2. After 3 hrs of incubation, the above media was removed with multi channel pipette, then 200 μl of DMSO was added to each well and incubated at 37° C. for 15 min. Finally, the plate was read at 570 nm using spectrophotometer (Spectra Max, Molecular devices).

[1] = tested on: A431 (Skin cancer) cell lines; test: MTT assay, A431; type: cell-based; conditions: Homo sapiens, read-out: A431 cell lines IC50
Experimental: as §1, §2

[2] = biological target: T1, porcine pancreatic α-amylase (Sus scrofa, UniProt P00690); test: α-Amylase inhibition assay; type: biochemical; conditions: 10 mg per ml; for Maltose released: a/b marks the respective control (Control-1 2.147, Control-2 3.429); for inhibition at 10000 µg/mL (stock): 0.05 h, calculated from maltose released vs respective control
T1 construct: α-amylase [EC 3.2.1.1) Type VI B: from porcine pancreas]; purchased Sigma Chemical Co., St Louis, Mo., USA; host or cells: porcine pancreas (natural source)
T1 sequence (P00690 16-511): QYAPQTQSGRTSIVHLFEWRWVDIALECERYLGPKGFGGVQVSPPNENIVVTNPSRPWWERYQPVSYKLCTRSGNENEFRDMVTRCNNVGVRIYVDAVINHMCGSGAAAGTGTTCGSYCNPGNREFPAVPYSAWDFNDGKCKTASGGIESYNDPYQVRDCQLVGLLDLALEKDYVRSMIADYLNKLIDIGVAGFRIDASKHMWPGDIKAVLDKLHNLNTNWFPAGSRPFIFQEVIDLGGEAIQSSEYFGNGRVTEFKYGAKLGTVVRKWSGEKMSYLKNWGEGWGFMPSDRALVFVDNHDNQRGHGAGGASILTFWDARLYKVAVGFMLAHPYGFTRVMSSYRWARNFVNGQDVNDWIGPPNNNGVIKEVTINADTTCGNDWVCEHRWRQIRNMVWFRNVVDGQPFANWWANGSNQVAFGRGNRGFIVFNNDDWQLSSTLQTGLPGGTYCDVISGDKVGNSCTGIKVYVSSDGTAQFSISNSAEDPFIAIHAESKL
Description: Chemicals: α-Glucosidase [(EC 3.2.1.20) Type I: from bakers yeast], rat intestinal acetone powder (as a source of crude intestinal α-glucosidase), α-amylase [EC 3.2.1.1) Type VI B: from porcine pancreas], p-nitrophenyl α-D-glucopyranoside, 3,5-dinitro salicylic acid, soluble potato starch and 1-deoxyrojirimycine, were purchased from Sigma Chemical Co., St Louis, Mo., USA. Other chemicals of analytical grade were procured from indigenous manufacturers.
a-Amylase Inhibition Assay: The assay method was adopted from Ali et al. (2006) and modified accordingly to suite microplate reading. In brief, 40 μL of test samples (10 mg/mL DMSO) were reconstituted in 160 μL of 20 mM phosphate buffer (pH 6.9) containing 6.7 mM sodium chloride in 2 mL Eppendorf tubes and incubated with 200 μL of porcine pancreatic α-amylase) (4 U/mL prepared in ice cold distilled water) for 5 min. The reaction was started by the addition of 400-μL soluble potato starch solution (0.5% w/v in 20 mM phosphate buffer, pH 6.9). Exactly 3 min after incubation, 400 μL DNS color reagent (1.0 g of 3,5-dinitrosalicylic acid, 30 g of sodium potassium tartrate and 20 mL of 2 N NaOH to a final volume of 100 mL in distilled water) was added. Closed tubes were placed in a water bath (85-90° C.) for 10 min to develop color and cooled thereafter. 50 μL of reaction mixtures was diluted with 175 μL of distilled water in a 96-well microplate. α-Amylase activity was determined by measuring the absorbance of the mixture at 540 nm spectrophotometrically as above. Individual blanks were prepared to correct for the background absorbance due to test samples. In this case DNS solution was added in tubes before addition of substrate. The percentage inhibition of enzyme activity was calculated as above. All the tests were run in duplicate in this assay.

Colo-205 (Colon cancer) = test: MTT assay, Colo-205; type: cell-based; conditions: for IC50: Homo sapiens, read-out: Colo-205 IC50
Experimental: as §1, §2

[3] = test compounds 100 mg/kg oral, Indomethacin 10 mg/kg oral, 3 hrs after Carrageenan
[4] = 50 mg/kg oral, dose response study, n=6
[5] = 100 mg/kg oral, dose response study, n=6
[6] = 200 mg/kg oral, dose response study, n=6

Cc1sc2nc3c(c(N)c2c1C)CCC3 [BN-1, 2,3-dimethyl-6,7-dihydro-5H-cyclopenta[b]thieno[3,2-e]pyridin-4-amine]
change in vivo at 100 mg/kg (Wistar rats; [3]): 87.9 ± 2.78% | inhibition in vivo at 100 mg/kg (Wistar rats; [3]): 24.7 ± 5.49% | IC50 (A549 (Lung cancer); A549, MTT, 48 hrs): 190 µg/mL (≈ 870 µM) | IC50 ([1]; A-431, MTT, 48 hrs): 45.7 µg/mL (≈ 209 µM) | Maltose released [2]: 2.20 mg/mL | inhibition at 10000 µg/mL (stock) [2]: -3.12% | IC50 (Colo-205 (Colon cancer); COLO 205, MTT, 48 hrs): 245 µg/mL (≈ 1120 µM)

Cc1sc2nc3c(c(N)c2c1C)CCCC3 [BN-2, 2,3-dimethyl-5,6,7,8-tetrahydrothieno[2,3-b]quinolin-4-amine]
change in vivo at 100 mg/kg (Wistar rats; [3]): 83.1 ± 2.66% | inhibition in vivo at 100 mg/kg (Wistar rats; [3]): 20.6 ± 2.05% | IC50 (A549 (Lung cancer); A549, MTT, 48 hrs): 50.1 µg/mL (≈ 216 µM) | IC50 ([1]; A-431, MTT, 48 hrs): 31.6 µg/mL (≈ 136 µM) | Alpha amylase inhibitory activity (in words) [2]: strong inhibitory activity; also recorded: mild inhibition | Maltose released [2]: 2.095 mg/mL | inhibition at 10000 µg/mL (stock) [2]: 39.7% | IC50 (Colo-205 (Colon cancer); COLO 205, MTT, 48 hrs): 117 µg/mL (≈ 504 µM)

Cc1sc2nc3c(c(N)c2c1C)CCCCC3 [BN-4, 2,3-dimethyl-6,7,8,9-tetrahydro-5H-cyclohepta[b]thieno[3,2-e]pyridin-4-amine]
% Inhibition (Wistar rats; [4]): 23.93 ± 2.96% | Percentage Swelling (50 mg/kg) (Wistar rats; [4]): 73.27 ± 4.47 % | % Inhibition (Wistar rats; [5]): 35.68 ± 3.77% | Percentage Swelling (100 mg/kg) (Wistar rats; [5]): 64.42 ± 3.97 % | % Inhibition (Wistar rats; [6]): 53.2% and 53.2 ± 3.03% | Percentage Swelling (200 mg/kg) (Wistar rats; [6]): 44.23 ± 3.34 % | change in vivo at 100 mg/kg (Wistar rats; [3]): 68.1 ± 3.41% | inhibition in vivo at 100 mg/kg (Wistar rats; [3]): 41.8 ± 3.77% | IC50 (A549 (Lung cancer); A549, MTT, 48 hrs): 36.3 µg/mL (≈ 147 µM) | IC50 ([1]; A-431, MTT, 48 hrs): 47.8 µg/mL (≈ 194 µM) | Maltose released [2]: 3.496 mg/mL | inhibition at 10000 µg/mL (stock) [2]: -2.01% | Colo-205 IC50 (Colo-205 (Colon cancer); MTT, 48 hrs): No activity

Nc1c2c(nc3sc4c(c13)CCCC4)CCC2 [BN-5, 2,3,6,7,8,9-Hexahydro-1H-benzo[4,5]thieno[2,3-b]cyclopenta[e]pyridin-10-amine]
change in vivo at 100 mg/kg (Wistar rats; [3]): 101 ± 2.94% | inhibition in vivo at 100 mg/kg (Wistar rats; [3]): 4.32 ± 1.19% | IC50 (A549 (Lung cancer); A549, MTT, 48 hrs): 144 µg/mL (≈ 591 µM) | IC50 ([1]; A-431, MTT, 48 hrs): 141 µg/mL (≈ 577 µM) | Maltose released [2]: 3.226 mg/mL | inhibition at 10000 µg/mL (stock) [2]: 4.85% | Colo-205 IC50 (Colo-205 (Colon cancer); MTT, 48 hrs): No activity

Nc1c2c(nc3sc4c(c13)CCCC4)CCCC2 [BN-6, 1,2,3,4,7,8,9,10-Octahydrobenzo[4,5]thieno[2,3-b]quinolin-11-amine]
change in vivo at 100 mg/kg (Wistar rats; [3]): 109 ± 2.73% | inhibition in vivo at 100 mg/kg (Wistar rats; [3]): 3.14 ± 1.96% | IC50 (A549 (Lung cancer); A549, MTT, 48 hrs): 33.8 µg/mL (≈ 131 µM) | IC50 ([1]; A-431, MTT, 48 hrs): 36.3 µg/mL (≈ 140 µM) | Alpha amylase inhibitory activity (in words) [2]: mild inhibition | Maltose released [2]: 2.548 mg/mL | inhibition at 10000 µg/mL (stock) [2]: 26.2% | IC50 (Colo-205 (Colon cancer); COLO 205, MTT, 48 hrs): 162 µg/mL (≈ 627 µM)

CC1CCc2c(nc3sc4c(c3c2N)CCCC4)C1 (stereo not drawn) [BN-7, 8-Methyl-1,2,3,4,7,8,9,10-octahydrobenzo[4,5]thieno[2,3-b]quinolin-11-amine]
change in vivo at 100 mg/kg (Wistar rats; [3]): 113 ± 22.3% | inhibition in vivo at 100 mg/kg (Wistar rats; [3]): 0.7 ± 0.7% | IC50 (A549 (Lung cancer); A549, MTT, 48 hrs): 49 µg/mL (≈ 180 µM) | IC50 ([1]; A-431, MTT, 48 hrs): 36.3 µg/mL (≈ 133 µM) | Maltose released [2]: 2.163 mg/mL | inhibition at 10000 µg/mL (stock) [2]: -0.765% | IC50 (Colo-205 (Colon cancer); COLO 205, MTT, 48 hrs): 70.7 µg/mL (≈ 260 µM)

Nc1c2c(nc3sc4c(c13)CCCC4)CCCCC2 [BN-8, 2,3,4,7,8,9,10,11-Octahydro-1H-benzo[4,5]thieno[2,3-b]cyclohepta [e]pyridin-12-amine]
change in vivo at 100 mg/kg (Wistar rats; po, 3 h): 109 ± 4.87% | inhibition in vivo at 100 mg/kg (Wistar rats; po, 3 h): 1.2 ± 0.87% | IC50 (A549 (Lung cancer); A549, 48 h): 186 µg/mL (≈ 683 µM) | IC50 ([1]; A-431, 48 h): 51.1 µg/mL (≈ 188 µM) | Alpha amylase inhibitory activity (in words) [2]: strong inhibitory activity | Maltose released [2]: 0.913 mg/mL | IC50 (Colo-205 (Colon cancer); COLO 205, 48 h): 70.8 µg/mL (≈ 260 µM)

Nc1c2c(nc3sc4c(c13)CCC4)CCC2 [BN-13, 1,2,3,6,7,8-hexahydrocyclopenta [b]cyclopenta[4,5] thieno[3,2-e]pyridin-9-amine]
change in vivo at 100 mg/kg (Wistar rats; po, 3 h): 91.7 ± 25.7% | inhibition in vivo at 100 mg/kg (Wistar rats; po, 3 h): 12.3 ± 1.95% | IC50 (A549 (Lung cancer); A549, 48 h): 83.2 µg/mL (≈ 361 µM) | IC50 ([1]; A-431, 48 h): 50.1 µg/mL (≈ 218 µM) | Alpha amylase inhibitory activity (in words) [2]: strong inhibitory activity | Maltose released [2]: 1.278 mg/mL | IC50 (Colo-205 (Colon cancer); COLO 205, 48 h): 144 µg/mL (≈ 625 µM)

COc1ccc2c(c1)c(CC(=O)O)c(C)n2C(=O)c1ccc(Cl)cc1 [Indomethacin, reference compound]
change in vivo at 100 mg/kg (Wistar rats; [3]): 41.7 ± 9.97% | inhibition in vivo at 100 mg/kg (Wistar rats; [3]): 50.1 ± 12.1%
